Data reported in patent US11897867B2, “6-phenyl-4,5-dihydropyridazin-3(2H)-one derivatives as PDE3A and PDE3B inhibitors for treating cancer” (Bayer Aktiengesellschaft, priority 2017, dated 2024).

Experiments:
[1] = tested on: HeLa cells (cervical cancer); test: Cell proliferation measurement (Cell Titer Glo), HeLa; type: cell-based; conditions: Homo sapiens, 72 h treatment, read-out: Anti-proliferation IC50 HeLa (Cervical cancer)
In short: (§1)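 Cells (1000/well; 500 for HeLa) plated overnight at 37 °C, then exposed to a ≥10-point compound dilution series for 72 h at 37 °C, DMSO 0.3% final as vehicle. Viability read by CellTiter-Glo luminescence; IC50 from 4-parameter fit against untreated wells.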

SK-MEL-3 (melanoma) = test: Cell proliferation measurement (Cell Titer Glo), SK-MEL-3; type: cell-based; conditions: Homo sapiens, SK-MEL3, SK-MEL-3 cells, 72 h treatment, read-out: Anti-proliferation IC50 SK-MEL-3 (melanoma)
In short: as §1

human full length PDE3A = molecular target: T1, human full length PDE3A (Homo sapiens, UniProt Q14432); test: PDE3A enzyme inhibition (3H-cAMP Scintillation Proximity Assay); type: biochemical; conditions: PDE3A cell extract from Sf9 cells, 60 min room temperature; read-out: Target IC50 PDE3A IC50
T1 construct: Sf9 cells overexpressing human full length PDE3A; purchased SB Drug Discovery, UK; host or cells: Sf9 cells (cell extract)
T1 sequence (Q14432 whole entry): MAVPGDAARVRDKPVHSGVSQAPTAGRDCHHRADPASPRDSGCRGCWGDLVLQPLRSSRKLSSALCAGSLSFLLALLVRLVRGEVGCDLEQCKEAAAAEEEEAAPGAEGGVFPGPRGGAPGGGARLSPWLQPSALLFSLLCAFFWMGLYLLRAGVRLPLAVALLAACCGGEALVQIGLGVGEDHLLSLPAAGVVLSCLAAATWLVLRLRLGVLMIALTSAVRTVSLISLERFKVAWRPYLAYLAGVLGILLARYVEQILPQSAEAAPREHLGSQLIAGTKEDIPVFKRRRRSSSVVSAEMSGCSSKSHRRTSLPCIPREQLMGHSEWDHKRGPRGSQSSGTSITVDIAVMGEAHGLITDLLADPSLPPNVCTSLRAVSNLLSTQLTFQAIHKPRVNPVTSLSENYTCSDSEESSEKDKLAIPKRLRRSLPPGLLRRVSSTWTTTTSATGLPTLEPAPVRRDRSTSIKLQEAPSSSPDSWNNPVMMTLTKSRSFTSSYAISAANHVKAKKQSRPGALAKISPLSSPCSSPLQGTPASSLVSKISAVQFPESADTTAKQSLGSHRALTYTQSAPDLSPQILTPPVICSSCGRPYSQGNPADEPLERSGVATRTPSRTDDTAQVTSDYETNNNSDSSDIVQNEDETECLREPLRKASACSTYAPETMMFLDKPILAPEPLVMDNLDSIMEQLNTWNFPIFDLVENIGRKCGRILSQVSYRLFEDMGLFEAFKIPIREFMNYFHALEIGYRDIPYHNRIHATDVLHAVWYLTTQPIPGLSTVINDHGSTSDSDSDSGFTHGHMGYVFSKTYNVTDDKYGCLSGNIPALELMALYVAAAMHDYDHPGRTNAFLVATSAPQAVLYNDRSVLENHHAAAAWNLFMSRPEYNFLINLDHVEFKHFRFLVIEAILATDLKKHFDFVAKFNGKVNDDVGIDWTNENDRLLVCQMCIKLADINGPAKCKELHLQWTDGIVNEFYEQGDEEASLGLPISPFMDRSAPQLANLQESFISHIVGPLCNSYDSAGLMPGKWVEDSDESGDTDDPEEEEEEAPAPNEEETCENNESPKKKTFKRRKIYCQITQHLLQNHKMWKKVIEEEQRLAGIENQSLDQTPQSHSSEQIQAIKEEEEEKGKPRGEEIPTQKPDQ
In short: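 Sf9 cell extract overexpressing human full-length PDE3A, diluted for linear kinetics (<70% substrate used), in 50 mM Tris/HCl pH 7.5, 8.3 mM MgCl2, 1.7 mM EDTA, 0.2% BSA. [8-3H]cAMP substrate, 60 min at room temperature, yttrium SPA bead read-out; IC50 from sigmoidal curves of % activity.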

human full length PDE3B = molecular target: T2, human full length PDE3B (Homo sapiens, UniProt Q13370); test: PDE3B enzyme inhibition (3H-cAMP Scintillation Proximity Assay); type: biochemical; conditions: PDE3B cell extract from Sf9 cells, 60 min room temperature; read-out: Target IC50 PDE3B IC50
T2 construct: Sf9 cells overexpressing human full length PDE3B; purchased SB Drug Discovery, UK; host or cells: Sf9 cells (cell extract)
T2 sequence (Q13370 whole entry): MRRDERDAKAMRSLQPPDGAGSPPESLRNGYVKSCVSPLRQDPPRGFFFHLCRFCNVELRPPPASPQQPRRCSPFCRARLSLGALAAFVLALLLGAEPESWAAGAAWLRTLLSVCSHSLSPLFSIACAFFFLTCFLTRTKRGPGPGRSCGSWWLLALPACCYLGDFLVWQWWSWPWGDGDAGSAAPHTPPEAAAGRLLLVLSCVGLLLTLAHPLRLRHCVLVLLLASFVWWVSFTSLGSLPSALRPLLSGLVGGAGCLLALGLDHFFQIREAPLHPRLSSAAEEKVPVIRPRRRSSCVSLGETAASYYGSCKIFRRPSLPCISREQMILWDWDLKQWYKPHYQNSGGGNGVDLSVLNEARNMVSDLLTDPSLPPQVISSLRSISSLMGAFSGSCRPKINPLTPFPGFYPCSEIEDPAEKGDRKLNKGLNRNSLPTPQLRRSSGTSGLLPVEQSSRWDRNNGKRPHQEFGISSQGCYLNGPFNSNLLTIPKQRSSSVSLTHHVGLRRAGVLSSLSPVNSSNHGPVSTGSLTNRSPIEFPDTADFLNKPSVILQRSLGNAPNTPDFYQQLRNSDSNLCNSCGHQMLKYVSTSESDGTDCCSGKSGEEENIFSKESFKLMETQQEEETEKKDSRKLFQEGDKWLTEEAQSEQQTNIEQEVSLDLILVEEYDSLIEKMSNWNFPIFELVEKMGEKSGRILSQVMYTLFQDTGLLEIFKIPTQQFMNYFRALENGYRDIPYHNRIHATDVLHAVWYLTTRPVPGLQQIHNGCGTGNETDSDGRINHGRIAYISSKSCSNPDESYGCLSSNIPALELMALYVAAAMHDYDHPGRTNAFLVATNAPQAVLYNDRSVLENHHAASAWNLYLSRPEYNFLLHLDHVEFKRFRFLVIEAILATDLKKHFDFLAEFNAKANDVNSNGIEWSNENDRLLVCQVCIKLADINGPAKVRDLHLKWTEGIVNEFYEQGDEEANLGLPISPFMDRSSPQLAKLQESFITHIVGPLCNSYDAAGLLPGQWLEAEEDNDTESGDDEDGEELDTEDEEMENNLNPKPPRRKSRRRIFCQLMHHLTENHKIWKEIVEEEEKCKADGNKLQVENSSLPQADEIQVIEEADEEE
In short: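 SPA with Sf9 cell extract overexpressing human full-length PDE3B, diluted for linear kinetics and <70% substrate turnover, in 50 mM Tris/HCl pH 7.5, 8.3 mM MgCl2, 1.7 mM EDTA, 0.2% BSA. [8-3H]cAMP substrate, 60 min at room temperature, stopped with yttrium SPA beads. IC50 from sigmoidal fit of % activity vs log concentration.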

Row | SMILES | IC50 [1] [nM] | IC50 (SK-MEL-3 (melanoma)) [nM] | IC50 (human full length PDE3A) [nM] | IC50 (human full length PDE3B) [nM]
1 | Cc1cc(C2=NNC(=O)CC2)ccc1-c1ccc(Cl)c(N)c1 [Example 108, 6-(3′-amino-4′-chloro-2-methyl[1,1′-biphenyl]-4-yl)-4,5-dihydropyridazin-3(2H)-one] | 6.54 | 17.8 | 160 | 210
2 | O=C1CCC(c2ccc(-c3cncc(C(F)(F)F)c3)c(F)c2)=NN1 [Example 29, 6-{3-fluoro-4-[5-(trifluoromethyl)pyridin-3-yl]phenyl}-4,5-dihydropyridazin-3(2H)-one] | 86.4 | > 100 | 160 | 110
3 | COc1cc(-c2ccc(C3=NNC(=O)CC3)cc2F)ccn1 [Example 32, 6-[3-fluoro-4-(2-methoxypyridin-4-yl)phenyl]-4,5-dihydropyridazin-3(2H)-one] | 59.9 | 64.7 | 64 | 36
4 | O=C1CCC(c2ccc(C3=CCOCC3)cc2)=NN1 [Example 1, 6-[4-(3,6-Dihydro-2H-pyran-4-yl)phenyl]-4,5-dihydropyridazin-3(2H)-one] | 30.9 | > 100 | 470 | 290
5 | O=C1CCC(c2ccc(N3CCOCC3)c(F)c2)=NN1 [Example 25, 6-[3-Fluoro-4-(morpholin-4-yl)phenyl]-4,5-dihydropyridazin-3(2H)-one] | 6.19 | 19.9 | 210 | 160
6 | Cc1ccc(-c2ccc(C3=NNC(=O)CC3)cc2F)cc1 [Example 87, 6-(2-fluoro-4′-methyl[1,1′-biphenyl]-4-yl)-4,5-dihydropyridazin-3(2H)-one] | 3.72 | 8.15 | 385 | 215
7 | O=C1CCC(c2ccc(N3CC(O)C3)c(C(F)(F)F)c2)=NN1 [Example 24, 6-[4-(3-Hydroxyazetidin-1-yl)-3-(trifluoromethyl)phenyl]-4,5-dihydropyridazin-3(2H)-one] | 9.97 | 15 | 350 | 300
8 | Cc1ccc(-c2ccc(C3=NNC(=O)CC3)cc2F)c(F)c1 [Example 37, 6-(2,2′-difluoro-4′-methyl[1,1′-biphenyl]-4-yl)-4,5-dihydropyridazin-3(2H)-one] | 4 | 7.31 | 130 | 100
9 | Cc1cc(F)ccc1-c1ccc(C2=NNC(=O)CC2)cc1 [Example 26, 6-(4′-Fluoro-2′-methylbiphenyl-4-yl)-4,5-dihydropyridazin-3(2H)-one] | 2.02 | 3.6 | 93 | 90
10 | COc1cccc(-c2ccc(C3=NNC(=O)CC3)cc2C)c1 [Example 113, 6-(3′-methoxy-2-methyl[1,1′-biphenyl]-4-yl)-4,5-dihydropyridazin-3(2H)-one] | 33 | > 100 | 88 | 91
11 | Cc1cc(C2=NNC(=O)CC2)ccc1Cl [Example 11, 6-(4-Chloro-3-methylphenyl)-4,5-dihydropyridazin-3(2H)-one] | 41.4 | 70.3 | 660 | 710
12 | COc1cccc(-c2ccc(C3=NNC(=O)CC3)cc2F)c1OC [Example 78, 6-(2-fluoro-2′,3′-dimethoxy[1,1′-biphenyl]-4-yl)-4,5-dihydropyridazin-3(2H)-one] | 53.3 | 69 | 320 | 600
13 | Cc1cc(C2=NNC(=O)CC2)ccc1C1=CCOCC1 [Example 7, 6-[4-(3,6-Dihydro-2H-pyran-4-yl)-3-methylphenyl]-4,5-dihydropyridazin-3(2H)-one] | 55.6 | > 100 | 200 | 35
14 | COc1cccc(-c2ccc(C3=NNC(=O)CC3)cc2F)c1 [Example 64, 6-(2-fluoro-3′-methoxy[1,1′-biphenyl]-4-yl)-4,5-dihydropyridazin-3(2H)-one] | 12 | 23.1 | 100 | 91
15 | O=C1CCC(c2ccc(-c3ccccc3F)c(F)c2)=NN1 [Example 60, 6-(2,2′-difluoro[1,1′-biphenyl]-4-yl)-4,5-dihydropyridazin-3(2H)-one] | 2.08 | 4.2 | 96 | 47
16 | COc1ccc(-c2ccc(C3=NNC(=O)CC3)cc2F)cc1 [Example 86, 6-(2-fluoro-4′-methoxy[1,1′-biphenyl]-4-yl)-4,5-dihydropyridazin-3(2H)-one] | 10.6 | 59.8 | 280 | 310

Further lines, results first:

Row | IC50 [1] [nM] | IC50 (SK-MEL-3 (melanoma)) [nM] | IC50 (human full length PDE3A) [nM] | IC50 (human full length PDE3B) [nM] | SMILES
17 | 40.6 | 8.88 | 63 | 41 | O=C1CCC(c2ccc(-c3cccc(O)c3)c(F)c2)=NN1 [Example 49, 6-(2-fluoro-3′-hydroxy[1,1′-biphenyl]-4-yl)-4,5-dihydropyridazin-3(2H)-one]
18 | 8.33 | 14.3 | 420 | 390 | C/C=C(\C)c1ccc(C2=NNC(=O)CC2)cc1F [Example 36, 6-{4-[(2E)-but-2-en-2-yl]-3-fluorophenyl}-4,5-dihydropyridazin-3(2H)-one]
19 | 1.29 | 2.99 | 200 | 89 | CC1C2CC2CN1c1c(F)cc(C2=NNC(=O)CC2)cc1F (stereo not drawn) [Example 17, 6-{3,5-Difluoro-4-[2-methyl-3-azabicyclo[3.1.0]hex-3-yl]phenyl}-4,5-dihydropyridazin-3(2H)-one]
20 | 14 | 23.6 | 83 | 85 | COc1ccc(-c2ccc(C3=NNC(=O)CC3)cc2F)cn1 [Example 82, 6-[3-fluoro-4-(6-methoxypyridin-3-yl)phenyl]-4,5-dihydropyridazin-3(2H)-one]
21 | 7.23 | 9.88 | 57 | 50 | Cc1ccc(-c2ccc(C3=NNC(=O)CC3)cc2F)cn1 [Example 34, 6-[3-fluoro-4-(6-methylpyridin-3-yl)phenyl]-4,5-dihydropyridazin-3(2H)-one]
22 | 4.75 | 6.4 | 250 | 88 | O=C1CCC(c2ccc(-c3cccc(F)c3)c(F)c2)=NN1 [Example 63, 6-(2,3′-difluoro[1,1′-biphenyl]-4-yl)-4,5-dihydropyridazin-3(2H)-one]
23 | 60.2 | > 100 | 100 | 89 | Nc1cc(-c2ccc(C3=NNC(=O)CC3)cc2F)ccn1 [Example 28, 6-[4-(2-aminopyridin-4-yl)-3-fluorophenyl]-4,5-dihydropyridazin-3(2H)-one]
24 | 5.76 | 10.4 | 210 | 210 | O=C1CCC(c2ccc(N3CC(F)(F)C3)c(C(F)(F)F)c2)=NN1 [Example 19, 6-[4-(3,3-Difluoroazetidin-1-yl)-3-(trifluoromethyl)phenyl]-4,5-dihydropyridazin-3(2H)-one]
25 | 9.26 | 52.4 | 270 | 190 | Cc1ccc(-c2ccc(C3=NNC(=O)CC3)cc2C)cc1F [Example 107, 6-(3′-fluoro-2,4′-dimethyl[1,1′-biphenyl]-4-yl)-4,5-dihydropyridazin-3(2H)-one]
26 | > 100 | > 100 | 330 | 290 | Nc1ccccc1-c1ccc(C2=NNC(=O)CC2)cc1F [Example 66, 6-(2′-amino-2-fluoro[1,1′-biphenyl]-4-yl)-4,5-dihydropyridazin-3(2H)-one]
27 | 13.7 | 19.3 | 95 | 96 | N#Cc1cccc(-c2ccc(C3=NNC(=O)CC3)cc2F)c1 [Example 47, 2′-fluoro-4′-(6-oxo-1,4,5,6-tetrahydropyridazin-3-yl)[1,1′-biphenyl]-3-carbonitrile]
28 | 4.69 | 7.7 | 250 | 83 | Cc1ccc(-c2ccc(C3=NNC(=O)CC3)cc2F)cc1F [Example 58, 6-(2,3′-difluoro-4′-methyl[1,1′-biphenyl]-4-yl)-4,5-dihydropyridazin-3(2H)-one]
29 | 15.3 | 26.3 | 110 | 110 | Nc1ccc(F)cc1-c1ccc(C2=NNC(=O)CC2)cc1F [Example 43, 6-(2′-amino-2,5′-difluoro[1,1′-biphenyl]-4-yl)-4,5-dihydropyridazin-3(2H)-one]
30 | 63.6 | > 100 | 820 | 690 | Cc1ccc(-c2ccc(C3=NNC(=O)CC3)cc2F)cc1C [Example 35, 6-(2-fluoro-3′,4′-dimethyl[1,1′-biphenyl]-4-yl)-4,5-dihydropyridazin-3(2H)-one]
